Assay results as given in PubChem BioAssay (NCI).
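Step 1: Grow cells in 96-well plates. Step 2: Expose to compound for 48 hours at 5 concentrations. Step 3: Interpolate endpoints linearly; if unreached, use highest concentration. GI50 is the concentration that inhibits growth by half. Definition used: TGI = concentration required for complete inhibition of growth.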

Experiments:
Experiment in all cases: NCI-60 cell line screen, 48 h
[1] = test system: 786-0 renal
[2] = test system: A498 renal
[3] = test system: A549 NSCLC
[4] = test system: ACHN renal
[5] = test system: BT-549 breast
[6] = test system: CAKI-1 renal
[7] = test system: CCRF-CEM leukemia
[8] = test system: COLO 205 colon
[9] = test system: DU-145 prostate
[10] = test system: EKVX NSCLC
[11] = test system: HCC-2998 colon
[12] = test system: HCT-116 colon
[13] = test system: HCT-15 colon
[14] = test system: HL-60(TB) leukemia
[15] = test system: HOP-62 NSCLC
[16] = test system: HOP-92 NSCLC
[17] = test system: HS 578T breast
[18] = test system: HT29 colon
[19] = test system: IGROV1 ovarian
[20] = test system: K-562 leukemia
[21] = test system: KM12 colon
[22] = test system: LOX IMVI melanoma
[23] = test system: M14 melanoma
[24] = test system: MALME-3M melanoma
[25] = test system: MCF7 breast
[26] = test system: MDA-MB-231 breast
[27] = test system: MDA-MB-435
[28] = test system: MOLT-4 leukemia
[29] = test system: NCI-H226 lung
[30] = test system: NCI-H23 lung
[31] = test system: NCI-H460 lung
[32] = test system: NCI-H522 lung
[33] = test system: NCI/ADR-RES ovarian
[34] = test system: OVCAR-3 ovarian
[35] = test system: OVCAR-4 ovarian
[36] = test system: OVCAR-5 ovarian
[37] = test system: OVCAR-8 ovarian
[38] = test system: PC-3 prostate
[39] = test system: RPMI-8226 leukemia
[40] = test system: RXF 393 renal
[41] = test system: SF-268 CNS
[42] = test system: SF-295 CNS
[43] = test system: SF-539 CNS
[44] = test system: SK-MEL-28 melanoma
[45] = test system: SK-MEL-5 melanoma
[46] = test system: SK-OV-3 ovarian
[47] = test system: SN12C renal
[48] = test system: SNB-19 CNS
[49] = test system: SNB-75 CNS
[50] = test system: SR leukemia
[51] = test system: SW-620 colon
[52] = test system: T-47D breast
[53] = test system: TK-10 renal
[54] = test system: U251 CNS
[55] = test system: UACC-257 melanoma
[56] = test system: UACC-62 melanoma
[57] = test system: UO-31 renal

COc1ccc([C@@H]2[C@@H](O)C(=O)N2c2cc(OC)c(OC)c(OC)c2)cc1Cl
GI50 [1]: < 19.8 nM
TGI [1]: > 100000 nM
GI50 [2]: 21700 nM
TGI [2]: > 100000 nM
GI50 [3]: < 19.3 nM
TGI [3]: > 100000 nM
GI50 [4]: < 14.4 nM
TGI [4]: > 100000 nM
GI50 [5]: < 14.4 nM
TGI [5]: 66.8 nM
GI50 [6]: < 12.2 nM
GI50 [7]: < 18.5 nM
TGI [7]: > 100000 nM
GI50 [8]: < 15.6 nM
TGI [8]: < 23.9 nM
GI50 [9]: < 19 nM
TGI [9]: > 100000 nM
TGI [10]: > 100000 nM
GI50 [11]: < 19.4 nM
GI50 [12]: < 14.9 nM
TGI [12]: > 100000 nM
GI50 [13]: < 16.9 nM
TGI [13]: > 100000 nM
GI50 [14]: < 15.9 nM
TGI [14]: 1830 nM
GI50 [15]: < 20.1 nM
TGI [15]: > 100000 nM
GI50 [16]: 16200 nM
TGI [16]: > 100000 nM
GI50 [17]: < 22.6 nM
TGI [17]: > 100000 nM
GI50 [18]: < 10 nM
GI50 [19]: < 20.3 nM
TGI [19]: > 100000 nM
GI50 [20]: < 14.3 nM
TGI [20]: > 100000 nM
GI50 [21]: < 16.3 nM
TGI [21]: > 100000 nM
GI50 [22]: < 11.4 nM
TGI [22]: > 100000 nM
GI50 [23]: < 17.1 nM
TGI [23]: > 100000 nM
GI50 [24]: 219 nM
TGI [24]: > 100000 nM
GI50 [25]: < 10 nM
TGI [25]: > 92000 nM
GI50 [26]: < 18.7 nM
TGI [26]: > 100000 nM
GI50 [27]: < 10 nM
TGI [27]: 24.8 nM
GI50 [28]: < 20 nM
TGI [28]: > 100000 nM
GI50 [29]: < 10 nM
TGI [29]: 75.3 nM
GI50 [30]: 35.3 nM
TGI [30]: > 100000 nM
GI50 [31]: < 18.9 nM
GI50 [32]: < 10 nM
TGI [32]: < 17.2 nM
GI50 [33]: < 15.2 nM
TGI [33]: 95.9 nM
GI50 [34]: < 10 nM
TGI [34]: 171 nM
GI50 [35]: 2160 nM
TGI [35]: > 100000 nM
GI50 [36]: < 18.6 nM
TGI [36]: > 100000 nM
GI50 [37]: < 17.9 nM
GI50 [38]: < 19.7 nM
TGI [38]: > 100000 nM
GI50 [39]: < 21.7 nM
GI50 [40]: 43.1 nM
TGI [40]: > 100000 nM
GI50 [41]: < 21.6 nM
TGI [41]: > 100000 nM
GI50 [42]: < 11.1 nM
TGI [42]: > 100000 nM
GI50 [43]: < 10 nM
TGI [43]: 49.1 nM
GI50 [44]: 146 nM
TGI [44]: > 100000 nM
GI50 [45]: < 14.9 nM
TGI [45]: 38 nM
GI50 [46]: < 22.9 nM
TGI [46]: > 51300 nM
GI50 [47]: < 19.3 nM
TGI [47]: > 100000 nM
GI50 [48]: < 24.1 nM
TGI [48]: > 100000 nM
GI50 [49]: 26.2 nM
TGI [49]: > 100000 nM
GI50 [50]: < 10.7 nM
TGI [50]: > 100000 nM
GI50 [51]: < 19.2 nM
TGI [51]: > 100000 nM
GI50 [52]: 33100 nM
TGI [52]: > 100000 nM
GI50 [53]: > 54900 nM
TGI [53]: > 100000 nM
GI50 [54]: < 17.8 nM
TGI [54]: > 100000 nM
GI50 [55]: > 100000 nM
TGI [55]: > 100000 nM
GI50 [56]: < 10 nM
TGI [56]: > 100000 nM
GI50 [57]: < 23.6 nM
TGI [57]: > 100000 nM

CCCCOc1ccc(S(=O)(=O)N2CCN(c3nccc(N4CCOCC4)n3)CC2)cc1
GI50 [1]: 2700 nM
TGI [1]: > 100000 nM
GI50 [3]: 654 nM
TGI [3]: > 100000 nM
GI50 [4]: 1920 nM
TGI [4]: > 100000 nM
GI50 [5]: 2450 nM
TGI [5]: > 100000 nM
GI50 [6]: 1760 nM
TGI [6]: > 100000 nM
GI50 [7]: 3440 nM
TGI [7]: > 100000 nM
GI50 [9]: 524 nM
TGI [9]: > 100000 nM
GI50 [11]: 1840 nM
TGI [11]: > 100000 nM
GI50 [12]: 484 nM
TGI [12]: > 100000 nM
GI50 [13]: 1710 nM
TGI [13]: > 100000 nM
GI50 [14]: 476 nM
TGI [14]: > 100000 nM
GI50 [15]: 16300 nM
TGI [15]: > 100000 nM
GI50 [16]: 1800 nM
TGI [16]: 6910 nM
GI50 [17]: 3020 nM
TGI [17]: > 100000 nM
GI50 [18]: 538 nM
TGI [18]: > 100000 nM
GI50 [20]: 3300 nM
TGI [20]: > 100000 nM
GI50 [21]: 1570 nM
TGI [21]: > 100000 nM
GI50 [23]: 2710 nM
TGI [23]: > 100000 nM
GI50 [25]: > 100000 nM
TGI [25]: > 100000 nM
GI50 [27]: 1500 nM
TGI [27]: > 100000 nM
GI50 [28]: 1400 nM
TGI [28]: > 100000 nM
GI50 [31]: 481 nM
TGI [31]: > 100000 nM
GI50 [32]: > 100000 nM
TGI [32]: > 100000 nM
GI50 [33]: 2020 nM
TGI [33]: > 100000 nM
GI50 [35]: 4730 nM
TGI [35]: > 100000 nM
GI50 [36]: > 100000 nM
TGI [36]: > 100000 nM
GI50 [37]: 4040 nM
TGI [37]: > 100000 nM
GI50 [38]: 3150 nM
TGI [38]: > 100000 nM
GI50 [39]: 422 nM
TGI [39]: 5590 nM
GI50 [43]: 4090 nM
TGI [43]: > 100000 nM
GI50 [46]: 2780 nM
TGI [46]: > 100000 nM
GI50 [48]: 6650 nM
TGI [48]: > 100000 nM
GI50 [49]: 1770 nM
TGI [49]: 4390 nM
GI50 [50]: 2770 nM
TGI [50]: > 100000 nM
